Experimental data: publication PMC7399811, “Analogues of a Cyclic Antimicrobial Peptide with a Flexible Linker Show Promising Activity against Pseudomonas aeruginosa and Staphylococcus aureus” (Antibiotics, 2020)
Values after ≈ are worked out from the molar mass of the structure shown. Square brackets hold non-standard residues; d marks the D form. Peptide text beside a SMILES is read from it. Bip = N[C@@H](Cc1ccc(-c2ccccc2)cc1)C(=O)O; 2Nal = N[C@@H](Cc1ccc2ccccc2c1)C(=O)O; Dab = NCC[C@H](N)C(=O)O; AEEA = NCCOCCOCC(=O)O

Key:
A. baumannii ATCC 19606 = assay type: cell-based; conditions: for Minimum inhibitory concentration AB: ATCC 19606
Experimental: (§1) Bacterial strains (E. coli ATCC 29522, S. aureus ATCC 29213, A. baumannii ATCC 19606, and P. aeruginosa ATCC 27853) were grown overnight on LB agar plates at 37 °C. Overnight cultures were prepared by inoculation of two to three colonies in 10 mL non-cation adjusted Mueller–Hinton broth (MHB) media (BD BBLTM Beef extract powder, BD BactoTMCasamino acids, and DIFCO soluble starch). Bacterial inoculum for MIC testing was prepared as balanced cultures, as previously described. The bacterial suspension was adjusted using MHB to an OD600 of 0.1, approximately 1·10^8 colony forming units (CFU/mL), and then diluted 1:200 in MHB, to give a final bacterial suspension of 5·10^5 CFU/mL, as described by Wiegand et al.. […] For MIC determination, all peptides were measured in triplicates using the protocol described by Wiegand et al. for “antimicrobial peptides that require the presence of acetic acid/BSA”. In brief, 20 µL peptide solution and gentamycin solution was transferred to column 1 of 96-well plates. Next, 10 µL 0.2% BSA; 0.01% acetic acid MHB media was transferred to column 2–11. Subsequently, peptides were serially diluted two-fold in the MIC plate and 90 µL bacterial suspension was transferred to all wells in column 1–11. Next, 100 µL bacterial suspension was transferred to column 12 D–F (growth control) and 100 µL media to column 12 A–C (sterility control). After an overnight incubation at 37 °C of the MIC plates, MIC values were determined as the lowest concentration at which there was no visible bacterial growth. For the inoculum control, 10 µL of solution from a positive-growth control well from each bacterial strain was dissolved in 990 µL phosphate-buffered saline (PBS) (1:100 dilution) in an Eppendorf tube. This solution was vortexed and 100 µL transferred to another Eppendorf tube containing 900 µL PBS (1:10 dilution) and vortexed. Then, 100 µL of each dilution was spread onto the MHB media plates, in triplicates, to achieve a CFU dilution of 1:1000 and 1:10,000, respectively. The plates were incubated overnight at 37 °C. The colonies were counted and 50 colonies were expected on the 1:10,000 plates and 500 on the 1:1000 plates.

E. coli ATCC 29522 = assay type: cell-based; conditions: for Minimum inhibitory concentration EC: ATCC 29522
Experimental: as §1

P. aeruginosa ATCC 27853 [1] = assay type: cell-based
Experimental: as §1

S. aureus ATCC 29213 [2] = assay type: cell-based
Experimental: as §1

[3] = RP-HPLC retention time as indicator of hydrophobicity/amphipathicity; assay type: physicochemical; conditions: chromatographic, Waters Symmetry C18 4.6 × 250 mm, used as measure of hydrophobicity/amphipathicity (Table S1)
Experimental: Cleavage was performed on half or all of the resin with a TFA:H2O:TIS (95:2.5:2.5) solution for 2 h. The cleavage solution was collected and concentrated with a gentle stream of N2, down to about 300 µL. The peptide was precipitated and washed with 4 mL cold (−20 °C) diethyl ether, 3 times. The residual ether was left overnight to evaporate. Next, the crude product was dissolved in 90% water and 10% ACN and freeze-dried, ready for analysis and purification. Peptides were identified using Matrix Assisted Laser Desorption Ionization time of flight mass spectroscopy (MALDI–ToF MS). To this end, 1 µL peptide solution and 1 µL α-cyano4-hydroxycinnamic acid matrix (10 mg/ mL in ACN:H2O:TFA, 50:47.5:2.5) were spotted onto a target plate, followed by detection using a MicroflexTM. FlexControl software was used to obtain the spectra and the data were processed using flexAnalysis [Bruker Daltonik GmbH]. RP–HPLC was used to assess peptide purity. The system consisted of a WatersTM In-Line Degasser AF, a WatersTM 600 pump, a WatersTM 2996 Photodiode Array Detector, and a WatersTM Symmetry C18, 4.6 × 250 mm, […] column. The data were processed using Empower3 software. Purity was ≥95% for all tested peptide. Peptide purification was done by dissolving the peptides in minimal […], and 300–500 µL was injected into the HPLC system to achieve separation.

[4] = tested on: S. aureus, P. aeruginosa, E. coli, A. baumannii; assay: Minimum inhibitory concentration, statements over several strains; assay type: cell-based; conditions: MIC against S. aureus and P. aeruginosa
Experimental: Bacterial strains (E. coli ATCC 29522, S. aureus ATCC 29213, A. baumannii ATCC 19606, and P. aeruginosa ATCC 27853) were grown overnight on LB agar plates at 37 °C. Overnight cultures were prepared by inoculation of two to three colonies in 10 mL non-cation adjusted Mueller–Hinton broth (MHB) media (BD BBLTM Beef extract powder, BD BactoTMCasamino acids, and DIFCO soluble starch). Bacterial inoculum for MIC testing was prepared as balanced cultures, as previously described. The bacterial suspension was adjusted using MHB to an OD600 of 0.1, approximately 1·10^8 colony forming units (CFU/mL), and then diluted 1:200 in MHB, to give a final bacterial suspension of 5·10^5 CFU/mL, as described by Wiegand et al.. […] For MIC determination, all peptides were measured in triplicates using the protocol described by Wiegand et al. for “antimicrobial peptides that require the presence of acetic acid/BSA”. In brief, 20 µL peptide solution and gentamycin solution was transferred to column 1 of 96-well plates. Next, 10 µL 0.2% BSA; 0.01% acetic acid MHB media was transferred to column 2–11. Subsequently, peptides were serially diluted two-fold in the MIC plate and 90 µL bacterial suspension was transferred to all wells in column 1–11. […] The colonies were counted and 50 colonies were expected on the 1:10,000 plates and 500 on the 1:1000 plates.

red blood cells = conditions: at 150 µM peptide; 0.5% v/v RBC in PBS, 1 h 37 °C, absorbance 414 nm, normalized to melittin (100%) and PBS (0%)
Experimental: A total of 150 µL of 5 µM melittin was added to the positive control wells 1-6H of a V-shaped 96-well polypropylene plate and left overnight. The melittin solution was removed and the positive control wells were washed 3 times with 150 µL PBS. Afterwards, a 2.5 µM melittin solution was added to the positive control wells. For the assay, 0-negative blood in EDTA was used. Blood was washed by mixing 3 mL of PBS with 1 mL of whole blood, and centrifuged for 8 min at 3000 rpm. The supernatant was discarded and 4 mL of PBS added, mixed gently, and centrifuged. This wash cycle was repeated but the last centrifuge velocity was raised to 4000 rpm. Next, 40 µL red blood cells (RBC) was suspended in 8 mL of PBS to achieve an RBC suspension of 0.5% volume/volume (v/v). Peptide solutions were prepared at 600 µM, two times the highest concentration. A total of 150 µL peptide solution was transferred to row A. Next, 75 µL PBS was transferred to wells B1 to G12, as well as H7-12 (negative control), and the peptides were serially diluted two-fold. Then, 75 µL RBC suspension was added to all wells and the plate was covered with a Microseal® film and incubated for 1 h at 37 °C. Next, the plate was centrifuged for 10 min at 4000 rpm. Subsequently, 60 µL supernatant was transferred into the corresponding wells of a clear, polystyrene, flat-bottomed 96-well ELISA plate. The absorbance was read at λ = 414 nm with a VersaMaxTM Tunable Microplate Reader and the data were evaluated on Softmax® Pro. The results were normalized with respect to the average positive (100%) and negative (0%) controls, as described previously [43].

P. aeruginosa ATCC 27853 [5] = assay: Time-kill kinetics; assay type: cell-based; conditions: for kind of activity in time-kill experiments: P. aeruginosa; for effect on CFU: P. aeruginosa late exponential phase (OD600 ~0.1)
Experimental: (§2) The killing kinetics of compound 11 (Figure 1A–D) were performed in two types of experiments on approximately 5 × 10^5 (exponential phase) and 5 × 10^7 (late exponential phase) colony forming units (CFU). […] Colistin and chloramphenicol was used as control antibiotics against P. aeruginosa and S. aureus, respectively. Chloramphenicol was chosen against S. aureus because initial experiments indicated 11 to be bacteriostatic. Time-kill experiments were performed on balanced exponentially growing cultures of S. aureus ATCC 29213 or P. aeruginosa ATCC 27853. We used balanced cultures, as described in Oddo et al.. In brief, overnight cultures were prepared in MHB broth at 37 °C, with shaking. Overnight cultures, were back diluted and grown exponentially for no less than 8–10 generations, before experimentation. When experiments were done at OD600 = 0.0005 ~5 × 10^5, the cultures were back diluted into fresh MHB, heated to 37 °C from an exponentially growing culture. In the late exponential phase, cultures were simply kept in the exponential phase, until OD600 = 0.1, before experimentation.

S. aureus ATCC 29213 [6] = assay: Time-kill kinetics; assay type: cell-based
Experimental: as §2

[7] = P. aeruginosa late exponential phase, 5× MIC

Compound	Minimum inhibitory concentration AB (A. baumannii ATCC 19606)	Minimum inhibitory concentration EC (E. coli ATCC 29522)	Minimum inhibitory concentration PA (P. aeruginosa ATCC 27853 [1])	Minimum inhibitory concentration SA (S. aureus ATCC 29213 [2])	HPLC retention time (RT) [3]	increase in activity compared to BSI-9 [4]	percent hemolytic activity against red blood cells (%H) (red blood cells)	activity in MIC assays (A. baumannii ATCC 19606; A. baumannii)	activity in MIC assays (E. coli ATCC 29522; E. coli)	kind of activity in time-kill experiments (P. aeruginosa ATCC 27853 [5])	reduction in viable bacterial counts (P. aeruginosa ATCC 27853 [5]; P. aeruginosa exponential phase (~5 × 10^5 CFU), 1× MIC)	reduction in CFU (P. aeruginosa ATCC 27853 [5]; P. aeruginosa exponential phase, 3–5× MIC, within the first hour)	effect on CFU (P. aeruginosa ATCC 27853 [5]; 1× MIC)	reduction in CFU (P. aeruginosa ATCC 27853 [5]; P. aeruginosa late exponential phase, 3× MIC)	reduction in CFU (P. aeruginosa ATCC 27853 [5]; [7])	reduction in CFU (S. aureus ATCC 29213 [6]; S. aureus exponential phase, 1× MIC)	reduction in CFU (S. aureus ATCC 29213 [6]; S. aureus exponential phase, 3× MIC and 5× MIC)	reduction in CFU (S. aureus ATCC 29213 [6]; S. aureus late exponential phase, 5× MIC, regrowth after 24 h)
NCC[C@@H]1NC(=O)[C@H](Cc2ccc3ccccc3c2)NC(=O)COCCOCCNC(=O)[C@H](Cc2ccc(-c3ccccc3)cc2)NC(=O)[C@H](CCN)NC(=O)[C@H](CCN)NC(=O)[C@H](Cc2ccc3ccccc3c2)NC(=O)[C@H](CCN)NC(=O)[C@H](CC(N)=O)NC1=O [compound 9] (cyclo([Dab][2Nal][Dab][Dab][Bip][AEEA][2Nal][Dab]N))	32 µg/mL (≈ 25 µM)	>64 µg/mL	4 µg/mL (≈ 3.13 µM)	8 µg/mL (≈ 6.26 µM)	17.8 min	8 fold	76%											
N=C(N)NCCC[C@@H]1NC(=O)[C@H](Cc2ccc3ccccc3c2)NC(=O)[C@H](CCN)NC(=O)[C@H](CC(N)=O)NC(=O)[C@H](CCN)NC(=O)[C@H](Cc2ccc3ccccc3c2)NC(=O)COCCOCCNC(=O)[C@H](Cc2ccc(-c3ccccc3)cc2)NC(=O)[C@H](CCN)NC1=O [compound 11] (cyclo([Dab][2Nal]R[Dab][Bip][AEEA][2Nal][Dab]N))	32 µg/mL (≈ 24 µM)	32 µg/mL (≈ 24 µM)					36%	no activity	no activity	bactericidal	~ 2 log	> 3 log	virtually no effect	1 log	3 log	2 log	> 3 log	3 log
N=C(N)NCCC[C@@H]1NC(=O)[C@H](Cc2ccc3ccccc3c2)NC(=O)COCCOCCNC(=O)[C@H](Cc2ccc(-c3ccccc3)cc2)NC(=O)[C@H](CCCNC(=N)N)NC(=O)[C@H](CCCNC(=N)N)NC(=O)[C@H](Cc2ccc3ccccc3c2)NC(=O)[C@H](CCCNC(=N)N)NC(=O)[C@H](CC(N)=O)NC1=O [compound 14] (cyclo(R[2Nal]RR[Bip][AEEA][2Nal]RN))	>64 µg/mL	>64 µg/mL	32 µg/mL (≈ 21.3 µM)	32 µg/mL (≈ 21.3 µM)			68%											
N=C(N)NCCC[C@@H]1NC(=O)[C@H](Cc2ccc3ccccc3c2)NC(=O)COCCOCCNC(=O)[C@H](Cc2ccc(-c3ccccc3)cc2)NC(=O)[C@H](CCN)NC(=O)[C@H](CCN)NC(=O)[C@H](Cc2ccc3ccccc3c2)NC(=O)[C@H](CCN)NC(=O)[C@H](CC(N)=O)NC1=O [compound 13] (cyclo([Dab][2Nal][Dab][Dab][Bip][AEEA][2Nal]RN))	64 µg/mL (≈ 48 µM)	32 µg/mL (≈ 24 µM)	4 µg/mL (≈ 3 µM)	1 µg/mL (≈ 0.75 µM)	17.9 min		80%											
NCCCC[C@@H]1NC(=O)[C@H](Cc2ccccc2)NC(=O)COCCOCCNC(=O)[C@H](Cc2ccc(-c3ccccc3)cc2)NC(=O)[C@H](CCCCN)NC(=O)[C@H](CCCCN)NC(=O)[C@H](Cc2ccc3ccccc3c2)NC(=O)[C@H](CCCCN)NC(=O)[C@H](CC(N)=O)NC1=O [compound 7] (cyclo(K[2Nal]KK[Bip][AEEA]FKN))	64 µg/mL (≈ 47.8 µM)	>64 µg/mL	64 µg/mL (≈ 47.8 µM)	>64 µg/mL			7%											
colistin [reference compound]										bactericidal			virtually no effect		1 log			
